These results are taken from patent publication US5610151A, “Monomeric bile acid derivatives, processes for their preparation and the use of these compounds as medicaments” (Hoechst Aktiengesellschaft, priority 1993, dated 1997).

The assay addresses T1, Na+-dependent bile acid transportation system (Oryctolagus cuniculus, UniProt Q28727).
T1 construct: Brush border membrane vesicles were prepared from the intestinal cells of the small intestine; from tissue; host or cells: terminal 7/10 of the small intestine (ileum) of male New Zealand rabbits, mucosal brush border membrane vesicles
T1 sequence (Q28727 1-347): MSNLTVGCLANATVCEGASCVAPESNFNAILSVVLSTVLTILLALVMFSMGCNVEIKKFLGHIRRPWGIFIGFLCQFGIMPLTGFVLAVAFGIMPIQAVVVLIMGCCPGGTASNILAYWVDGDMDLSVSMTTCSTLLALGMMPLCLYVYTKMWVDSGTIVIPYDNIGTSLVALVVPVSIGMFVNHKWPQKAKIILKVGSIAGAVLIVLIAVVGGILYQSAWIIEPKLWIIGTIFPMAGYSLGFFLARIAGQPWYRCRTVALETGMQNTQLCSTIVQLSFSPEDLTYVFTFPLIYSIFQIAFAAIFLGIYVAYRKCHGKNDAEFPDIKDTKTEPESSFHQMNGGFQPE
The experiment in a line: Inhibition of [3H]-taurocholate uptake in brush border membrane vesicles from the ileum of rabbits. The assay is classed as biochemical. The following applies: Na+-dependent [3H]-taurocholate uptake (difference Na-T-P minus K-T-P), 50 μM taurocholate, rabbit ileum brush border membrane vesicles; drawing 7. The method, then: The compounds according to the invention were tested biologically by determination of the inhibition of [^3 H]taurocholate uptake in the brush border membrane vesicles from the ileum of rabbits. The inhibition test was carried out as follows:
1. Preparation of brush border membrane vesicles from the ileum of rabbits
Brush border membrane vesicles were prepared from the intestinal cells of the small intestine by the so-called Mg^2+ precipitation method. Male New Zealand rabbits (2 to 2.5 kg body weight) were sacrificed by intravenous injection of 0.5 ml of an aqueous solution of 2.5 mg of tetracaine HCl, 100 T 61^R and 25 mg of mebezonium iodide. The small intestine was removed and rinsed with ice-cold physiological saline solution. The terminal 7/10 of the small intestine (measured in the oral-rectal direction, i.e. the terminal ileum, which contains the active Na^+ -dependent bile acid transportation system) was used for preparation of the brush border membrane vesicle. The intestines were frozen in plastic bags under nitrogen at -80° C. For preparation of the membrane vesicles, the frozen intestines were thawed at 30° C. in a water bath. The mucosa was scraped off and suspended in 60 ml of ice-cold 12 mM Tris/HCl buffer (pH 7.1)/300 mM mannitol, 5 mM EGTA/10 mg/1 of phenylmethylsulfonyl fluoride/1 mg/1 of trypsin inhibitor from soybeans (32 U/mg)/0.5 mg/1 of trypsin inhibitor from bovine lung (193 U/mg)/5 mg/1 of bacitracin. After dilution to 300 ml with ice-cold distilled water, the mixture was homogenized with an Ultraturrax (18-rod, IKA Werk Staufen, FRG) for 3 minutes at 75% of the maximum output, while cooling with ice. After addition of 3 ml of 1M MgCl2 solution (final concentration 10 mM), the mixture was left to stand at 0° C. for exactly 1 minute. The cell membranes aggregate by addition of Mg^2+ and precipitate, with the exception of the brush border membranes. After centrifugation at 3000× g (5000 rpm, SS-34 rotor) for 15 minutes, the precipitate was discarded, and the supernatant, which contained the brush border membranes, was centrifuged at […] (15000 rpm, SS-34 rotor) for 30 minutes. The supernatant was discarded and the precipitate was rehomogenized in 60 ml of 12 mM Tris/HCl buffer (pH 7.1)/60 mM mannitol, 5 mM EGTA using a Potter Elvejhem homogenizer (Braun, Melsungen, 900 rpm, 10 strokes). After addition of 0.1 ml of 1 M MgCl2 solution and an incubation time of 15 minutes at 0° C., the mixture was centrifuged again at 3000× g for 15 minutes. The supernatant was then centrifuged again at 46000× g (15000 rpm, SS-34 rotor) for 30 minutes. The precipitate was taken up in 30 ml of 10 mM Tris/Hepes buffer (pH 7.4)/300 mM mannitol and resuspended homogeneously by 20 strokes in a Potter Elvejhem homogenizer at 1000 rpm. After centrifugation at 48000× g (20000 rpm, SS-34 rotor) for 30 minutes, the precipitate was taken up in 0.5 to 2 ml of Tris/Hepes buffer (pH 7.4)/280 mM mannitol (final concentration 20 mg/ml) and resuspended with the aid of a tuberculin syringe with a 27 gauge needle. The vesicles were either used immediately for transportation studies after preparation, or stored at -196° C. in portions of 4 mg in liquid nitrogen.
2. Inhibition of Na^+ -dependent [^3 H]-taurocholate uptake in the brush border membrane vesicles of the ileum
The uptake of substrates into the brush border membrane vesicles described above was determined by means of the so-called membrane filtration technique. 10 μl of the vesicle suspension (100 μg of protein) were pipetted as drops onto the wall of a polystyrene incubation tube (11×70 mm) which contained the incubation medium with the corresponding ligands (90 μl). […]

For the molecule `Cc1ccc(S(=O)(=O)N(C)CCCCCCO[C@H]2CC[C@@]3(C)[C@@H](C2)C[C@@H](O)[C@@H]2[C@@H]3C[C@H](O)[C@]3(C)[C@@H]([C@H](C)CCC(=O)O)CC[C@@H]23)cc1` [Example 36], the “quotient of the IC50Na value of taurochenodesoxycholate (TCDC) standard and the particular substance” value came out at 0.20.
The same measure for `Cc1ccc(S(=O)(=O)NCCCCCCO[C@H]2CC[C@@]3(C)[C@@H](C2)C[C@@H](O)[C@@H]2[C@@H]3C[C@H](O)[C@]3(C)[C@@H]([C@H](C)CCC(=O)O)CC[C@@H]23)cc1` [Example 35]: 1.02; for `C[C@H](CCC(=O)O)[C@H]1CC[C@H]2[C@@H]3[C@H](O)C[C@@H]4C[C@@H](OCCCCCCOP(=O)(Oc5ccccc5)Oc5ccccc5)CC[C@]4(C)[C@H]3C[C@H](O)[C@]12C` [Example 18]: 0.42.
For `C[C@H](CCC(=O)O)[C@H]1CC[C@H]2[C@@H]3[C@H](O)C[C@@H]4C[C@@H](OCCCCCCCCO)CC[C@]4(C)[C@H]3C[C@H](O)[C@]12C` [Example 3], the “quotient of the IC50Na value of taurochenodesoxycholate (TCDC) standard and the particular substance” value is given as 0.35.
The same measure for `C[C@H](CCC(=O)O)[C@H]1CC[C@H]2[C@@H]3[C@H](O)C[C@@H]4C[C@@H](OCCCCCCNC(=O)c5cccc6ccccc56)CC[C@]4(C)[C@H]3C[C@H](O)[C@]12C` [Example 38]: 0.41; for `C[C@H](CCC(=O)O)[C@H]1CC[C@H]2[C@@H]3[C@H](O)C[C@@H]4C[C@H](CCNC(=O)c5cccc6ccccc56)CC[C@]4(C)[C@H]3C[C@H](O)[C@]12C` [Example 33]: 0.35; for `C[C@H](CCC(=O)O)[C@H]1CC[C@H]2[C@@H]3[C@H](O)C[C@@H]4C[C@@H](OCCCCCCNC(=O)[C@H](O)[C@@H](O)[C@H](O)[C@H](O)CO)CC[C@]4(C)[C@H]3C[C@H](O)[C@]12C` [Example 43]: 0.73.
The value for `C[C@H](CCC(=O)O)[C@H]1CC[C@H]2[C@@H]3[C@H](O)C[C@@H]4C[C@@H](OCCCCCCNC(N)=O)CC[C@]4(C)[C@H]3C[C@H](O)[C@]12C` [Example 21] was 0.33; that for `COc1ccc(Cl)cc1C(=O)NCCc1ccc(S(=O)(=O)NC(=O)NCCCCCCO[C@H]2CC[C@@]3(C)[C@@H](C2)C[C@@H](O)[C@@H]2[C@@H]3C[C@H](O)[C@]3(C)[C@@H]([C@H](C)CCC(=O)O)CC[C@@H]23)cc1` [Example 40] was 0.50; that for `C[C@H](CCC(=O)O)[C@H]1CC[C@H]2[C@@H]3[C@H](O)C[C@@H]4C[C@@H](OCCCCCCCCCO)CC[C@]4(C)[C@H]3C[C@H](O)[C@]12C` [Example 4] was 0.69.
